This is an account of results in patent US12655116B2, “Substituted isophthalic acid diamides” (Bayer Aktiengesellschaft, priority 2020, dated 2026).

Assay [1] deals with AMARE. The assay can be described thus: Pre-emergence herbicidal action against AMARE. The assay is classed as in vivo, Amaranthus retroflexus. Particulars: for pest or weed control at 20 g/ha / pest or weed control at 80 g/ha: Amaranthus retroflexus, 504 h. Put shortly: (§1)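 Sandy loam pots, seeds covered with soil, then surface-treated with WP or EC formulations at 600–800 l/ha water plus 0.2% wetting agent. Greenhouse, 3 weeks. Percent damage vs untreated controls.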

For assay [2], the system named is ABUTH. The assay can be described thus: Pre-emergence herbicidal action against ABUTH. The assay is classed as in vivo, Abutilon theophrasti. Put shortly: as §1
In assay [3] the test system is ALOMY. The assay can be described thus: Post-emergence herbicidal action against ALOMY. The assay is classed as in vivo, Alopecurus myosuroides. The settings on record: Alopecurus myosuroides, 504 h, visual assessment about 3 weeks after treatment vs untreated controls. Put shortly: (§2)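 Visual % rating (0% = as untreated, 100% = dead) ~3 wk after spraying one-leaf-stage plants grown in sandy loam; WP/EC in water at 600–800 l/ha, 0.2% wetting agent.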

Assay [4] deals with PHBPU. In words: Pre-emergence herbicidal action against PHBPU. The assay is classed as in vivo, Pharbitis purpurea. The settings on record: dosage 80 g/ha; for pest or weed control at 80 g/ha: Ipomoea purpurea, 504 h. The essentials: as §1
The test system of a further assay is POLCO. The assay can be described thus: Pre-emergence herbicidal action against POLCO. The assay is classed as in vivo, Polygonum convolvulus. The settings on record: dosage 80 g/ha; for pest or weed control at 80 g/ha: Fallopia convolvulus, 504 h. The essentials:
as §1

For a further assay, the system named is VERPE. The assay can be described thus: Pre-emergence herbicidal action against VERPE. The assay is classed as in vivo, Veronica persica. Particulars: dosage 80 g/ha; for pest or weed control at 80 g/ha: Veronica persica, 504 h. The essentials:
as §1

Assay [5] relates to PHBPU. The assay can be described thus: Post-emergence herbicidal action against PHBPU. The assay is classed as in vivo, Pharbitis purpurea. The settings on record: Ipomoea purpurea, 504 h, dosage 20 g/ha. Put shortly: as §2
The subject of assay [6] is MATIN. In words: Pre-emergence herbicidal action against MATIN. The settings on record: for pest or weed control at 20 g/ha / pest or weed control at 80 g/ha: Tripleurospermum inodorum, 504 h. The assay is classed as in vivo, Matricaria inodora. Put shortly: as §1
Assay [7] concerns VIOTR. In words: Post-emergence herbicidal action against VIOTR. The assay is classed as in vivo, Viola tricolor. The essentials:
as §2

Assay [8] deals with ABUTH. In words: Post-emergence herbicidal action against ABUTH. The assay is classed as in vivo, Abutilon theophrasti. Particulars: visual assessment about 3 weeks after treatment vs untreated controls. Put shortly: as §2
In assay [9] the test system is ECHCG. In words: Post-emergence herbicidal action against ECHCG. The assay is classed as in vivo, Echinochloa crus-galli. Put shortly: as §2
Assay [10] relates to ECHCG. The assay can be described thus: Pre-emergence herbicidal action against ECHCG. The assay is classed as in vivo, Echinochloa crus-galli. Put shortly: as §1
The test system of assay [11] is ALOMY. The assay can be described thus: Pre-emergence herbicidal action against ALOMY. The assay is classed as in vivo, Alopecurus myosuroides. Particulars: pre-emergence; for pest or weed control at 80 g/ha / pest or weed control at 20 g/ha: Alopecurus myosuroides, 504 h; for pest or weed control at 20 g/ha: scored visually after 3 weeks, 100% = plants have died, 0% = like control plants. The essentials: as §1

Assay [12] has as its system VIOTR. The assay can be described thus: Pre-emergence herbicidal action against VIOTR. The assay is classed as in vivo, Viola tricolor. Particulars: for pest or weed control at 80 g/ha: Viola tricolor, 504 h. Put shortly: as §1
The subject of assay [13] is AMARE. The assay can be described thus: Post-emergence herbicidal action against AMARE. The assay is classed as in vivo, Amaranthus retroflexus. Particulars: 20 g/ha, visual assessment about 3 weeks after treatment, 100% = plants have died, 0% = like control plants; for pest or weed control at 20 g/ha: Amaranthus retroflexus, 504 h. The essentials: as §2
In the next assay the test system is SETVI. In words: Pre-emergence herbicidal action against SETVI. The assay is classed as in vivo, Setaria viridis. The settings on record: dosage 80 g/ha. Put shortly:
as §1

A further assay has as its system AVEFA. The assay can be described thus: Pre-emergence herbicidal action against AVEFA. The assay is classed as in vivo, Avena fatua. Particulars: pre-emergence. The essentials:
as §1

Assay [14] concerns DIGSA. In words: Pre-emergence herbicidal action against DIGSA. The assay is classed as in vivo, Digitaria sanguinalis. Put shortly:
as §1

For assay [15], the system named is DIGSA. In words: Post-emergence herbicidal action against DIGSA. The assay is classed as in vivo, Digitaria sanguinalis. The settings on record: 20 g/ha. Put shortly:
as §2

Assay [16] relates to MATIN. The assay can be described thus: Post-emergence herbicidal action against MATIN. The assay is classed as in vivo, Matricaria inodora. The settings on record: dosage 20 g/ha. Put shortly: as §2
Setting [17] is: 20 g/ha, scored visually after 3 weeks vs untreated controls, 100% = plants have died, 0% = like control plants.
The mark [18] stands for this setting: 80 g/ha, scored visually after 3 weeks vs untreated controls, 100% = plants have died, 0% = like control plants.
Setting [19] is: Abutilon theophrasti, 504 h, 80 g/ha, scored visually after 3 weeks vs untreated controls (100% = plants have died, 0% = like control plants).
The mark [20] stands for this setting: Abutilon theophrasti, 504 h, dosage 20 g/ha.
The mark [21] stands for this setting: Echinochloa crus-galli, 504 h, dosage 20 g/ha.
Setting [22] is: Echinochloa crus-galli, 504 h, 80 g/ha.
Setting [23] is: 80 g/ha, scored visually after 3 weeks vs untreated controls (100% = plants have died, 0% = like control plants).

`CCCNC(=O)c1c(Br)ccc(C(=O)Nc2nnnn2C)c1Cl` [Example 1-184]: the pest or weed control at 20 g/ha with AMARE [1] (setting [17]) came to 100%; with ALOMY [3] (dosage 20 g/ha), 80%; in the assay on PHBPU [5] it was 80%; with MATIN [6] (dosage 20 g/ha) it was 80%; in the assay on VIOTR [7] (Viola tricolor, 504 h, 20 g/ha), 90%; in the assay on ABUTH [8] (setting [20]), 80%. Further, the results for the pest or weed control at 20 g/ha in the assay with ECHCG [9] (setting [21]), with ALOMY [11] and in the assay with AMARE [13] were 100%, 90% and 100%, respectively. Moreover, the pest or weed control at 80 g/ha with AMARE [1] (setting [18]) is 100%; with ABUTH [2] (setting [19]), 100%; in the assay on PHBPU [4], 80%; with POLCO, 80%; with VERPE it was 90%; in the assay with MATIN [6] (dosage 80 g/ha), 100%. For the same compound, the pest or weed control at 80 g/ha is 100% in the assay with ECHCG [10] (setting [22]), 100% in the assay on ALOMY [11] (setting [23]) and 90% in the assay with VIOTR [12] (dosage 80 g/ha). Moreover, the pest or weed control at 5 g/ha came out at 80% in the assay on ALOMY [3] (dosage 5 g/ha) and 80% with ABUTH [8] (Abutilon theophrasti, 504 h, dosage 5 g/ha).

In the case of `Cn1nnnc1NC(=O)c1ccc(C(F)(F)F)c(C(=O)NCC(F)(F)F)c1Br` [Example 1-211], the pest or weed control at 20 g/ha amounted to 100% with AMARE [1] (setting [17]); 100% with ABUTH [2] (Abutilon theophrasti, 504 h, dosage 20 g/ha, scored visually after 3 weeks vs untreated controls, 100% = plants have died, 0% = like control plants, read-out: Pre-emergence action against ABUTH (herbicidal activity in percent)); 90% with MATIN [6] (dosage 20 g/ha); 80% in the assay with ABUTH [8] (setting [20]); 90% in the assay on ECHCG [9] (setting [21]); 90% with ECHCG [10] (Echinochloa crus-galli, 504 h, 20 g/ha). Further, the pest or weed control at 20 g/ha in the assay with ALOMY [11] was found to be 90%; in the assay on AMARE [13], 90%; in the assay with AVEFA (Avena fatua, 504 h, 20 g/ha, scored visually after 3 weeks, 100% = plants have died, 0% = like control plants), 80%. Further, the pest or weed control at 80 g/ha stood at 100% with AMARE [1] (setting [18]); 100% in the assay with ABUTH [2] (setting [19]); 80% with PHBPU [4]; 90% in the assay on POLCO; 100% in the assay on VERPE; 100% in the assay on MATIN [6] (dosage 80 g/ha). Besides, the pest or weed control at 80 g/ha in the assay on SETVI (Setaria viridis, 504 h) is 100%; in the assay with ECHCG [10] (setting [22]), 100%; in the assay with ALOMY [11] (setting [23]), 100%; in the assay with VIOTR [12] (dosage 80 g/ha) it was 100%; in the assay on AVEFA (Avena fatua, 504 h, 80 g/ha), 90%. In addition, the pest or weed control at 5 g/ha in the assay with ECHCG [9] (Echinochloa crus-galli, 504 h, dosage 5 g/ha) amounted to 80%.

Consider `CCn1nnnc1NC(=O)c1ccc(C(F)F)c(C(=O)NC)c1Br` [Example 2-225], for which the “Pre-emergence action against AMARE in %” value in the assay with AMARE [1] (setting [17]) and in the assay with AMARE [1] (setting [23]) was 100% each time. The “Pre-emergence action against ABUTH (herbicidal activity)” value with ABUTH [2] (setting [23]) came out at 100%. Further, the “Pre-emergence action against ABUTH (herbicidal activity in percent)” value with ABUTH [2] (dosage 20 g/ha, scored visually after 3 weeks vs untreated controls, 100% = plants have died, 0% = like control plants) worked out at 100%. Moreover, the “Pre-emergence action against PHBPU in %” value in the assay on PHBPU [4] was 90%. Further, the “Pre-emergence action against POLCO in %” value with POLCO is reported as 90%. For the same compound, in the assay with VERPE, the “Pre-emergence action against VERPE in %” value amounted to 100%. The “Pre-emergence action against MATIN in %” value came to 80% with MATIN [6] (dosage 20 g/ha) and 100% with MATIN [6] (dosage 80 g/ha). For the same compound, the “Pre-emergence action against DIGSA in %” value in the assay on DIGSA [14] (dosage 20 g/ha) and in the assay on DIGSA [14] (dosage 80 g/ha) was 100% throughout. For the same compound, in the assay on DIGSA [15], the “Post-emergence action against DIGSA” value is recorded as 100%. Further, the “Post-emergence action against VIOTR in %” value in the assay on VIOTR [7] (5 g/ha) and with VIOTR [7] (20 g/ha) was 100% in each case. For the same compound, the “Pre-emergence action against SETVI in %” value in the assay with SETVI was 100%. Moreover, the “Post-emergence action against MATIN in %” value in the assay on MATIN [16] is on record as 80%. Besides, the “Post-emergence action against ABUTH in %” value in the assay with ABUTH [8] (dosage 5 g/ha) and in the assay on ABUTH [8] (dosage 20 g/ha) was 100% each time. In the assay on ECHCG [9] (dosage 20 g/ha), the “Post-emergence action against ECHCG in %” value is reported as 100%. In addition, the “Pre-emergence action against ECHCG in %” value in the assay with ECHCG [10] (80 g/ha) was found to be 90%. In the assay with ALOMY [11] (setting [23]), the “Pre-emergence action against ALOMY (herbicidal activity)” value is on record as 100%. Also, the “Pre-emergence action against VIOTR in %” value in the assay with VIOTR [12] (dosage 20 g/ha) is 80%; in the assay on VIOTR [12] (dosage 80 g/ha), 100%. In addition, the “Post-emergence action at 20 g/ha against AMARE in %” value with AMARE [13] came out at 100%. For the same compound, in the assay with AVEFA (80 g/ha), the “Pre-emergence action against AVEFA in %” value worked out at 80%.
